Experimental data taken from ChEMBL document CHEMBL1155947, “Discovery of a novel series of benzoic acid derivatives as potent and selective human beta3 adrenergic receptor agonists with good oral bioavailability. 3. Phenylethanolaminotetraline (PEAT) skeleton containing biphenyl or biphenyl ether moiety” (J Med Chem, 2008).

Columns and labels:
[1] = Bioavailability in dog at 0.1 mg/mL, iv by cassette assay; type: ADME, organism-based, Canis lupus familiaris; conditions: in vivo
[2] = target: Beta-2 adrenergic receptor (Homo sapiens, UniProt P07550); assay: Agonist activity at human beta2 adrenergic receptor expressed in CHO cells assessed as cAMP accumulation; type: functional, cell-based
Chain of Beta-2 adrenergic receptor (P07550 whole entry): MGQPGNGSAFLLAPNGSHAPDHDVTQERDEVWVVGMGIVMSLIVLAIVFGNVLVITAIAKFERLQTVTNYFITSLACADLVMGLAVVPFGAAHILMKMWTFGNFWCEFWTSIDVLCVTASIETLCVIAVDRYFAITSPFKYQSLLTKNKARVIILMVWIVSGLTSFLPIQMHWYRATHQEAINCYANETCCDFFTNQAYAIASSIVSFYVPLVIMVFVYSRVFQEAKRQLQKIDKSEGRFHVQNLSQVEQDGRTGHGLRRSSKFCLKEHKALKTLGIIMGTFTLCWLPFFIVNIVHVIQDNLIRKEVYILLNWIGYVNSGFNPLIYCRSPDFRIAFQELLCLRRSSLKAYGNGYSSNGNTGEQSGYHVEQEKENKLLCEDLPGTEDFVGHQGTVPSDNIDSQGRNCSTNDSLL

[3] = Terminal half life in dog at 0.1 mg/mL, iv by cassette assay; type: ADME, organism-based, Canis lupus familiaris; conditions: in vivo
[4] = target: Beta-3 adrenergic receptor (Homo sapiens, UniProt P13945); assay: Agonist activity at human cloned beta3 adrenergic receptor expressed in CHO cells assessed as cAMP accumulation; type: functional, cell-based
Chain of Beta-3 adrenergic receptor (Homo sapiens, UniProt P13945) (P13945 whole entry): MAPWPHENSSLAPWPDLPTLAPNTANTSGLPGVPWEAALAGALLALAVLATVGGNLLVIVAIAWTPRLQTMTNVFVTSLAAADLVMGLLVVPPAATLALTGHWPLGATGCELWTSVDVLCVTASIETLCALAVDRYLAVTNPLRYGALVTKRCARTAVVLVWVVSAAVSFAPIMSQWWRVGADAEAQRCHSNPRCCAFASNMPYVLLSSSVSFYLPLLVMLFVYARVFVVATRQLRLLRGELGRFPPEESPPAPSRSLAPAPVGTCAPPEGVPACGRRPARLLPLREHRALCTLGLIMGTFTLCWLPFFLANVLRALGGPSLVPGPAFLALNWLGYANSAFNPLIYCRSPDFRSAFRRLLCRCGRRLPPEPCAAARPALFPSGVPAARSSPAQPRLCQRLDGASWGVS

Homo sapiens = species on record: Homo sapiens; assay: Ratio of EC50 for human cloned beta-1 adrenergic receptor to EC50 for human cloned beta3 adrenergic receptor
[5] = AUC (0 to 24 hrs) in dog at 0.2 mg/kg, po by cassette assay; type: ADME, organism-based, Canis lupus familiaris; set-up: time < 24 hr, dose 0.2 mg/kg, route oral; conditions: plasma
[6] = Total clearance in dog at 0.1 mg/mL, iv by cassette assay; type: ADME, organism-based, Canis lupus familiaris; conditions: in vivo
[7] = target: Beta-1 adrenergic receptor (Homo sapiens, UniProt P08588)
Chain of Beta-1 adrenergic receptor (P08588 whole entry): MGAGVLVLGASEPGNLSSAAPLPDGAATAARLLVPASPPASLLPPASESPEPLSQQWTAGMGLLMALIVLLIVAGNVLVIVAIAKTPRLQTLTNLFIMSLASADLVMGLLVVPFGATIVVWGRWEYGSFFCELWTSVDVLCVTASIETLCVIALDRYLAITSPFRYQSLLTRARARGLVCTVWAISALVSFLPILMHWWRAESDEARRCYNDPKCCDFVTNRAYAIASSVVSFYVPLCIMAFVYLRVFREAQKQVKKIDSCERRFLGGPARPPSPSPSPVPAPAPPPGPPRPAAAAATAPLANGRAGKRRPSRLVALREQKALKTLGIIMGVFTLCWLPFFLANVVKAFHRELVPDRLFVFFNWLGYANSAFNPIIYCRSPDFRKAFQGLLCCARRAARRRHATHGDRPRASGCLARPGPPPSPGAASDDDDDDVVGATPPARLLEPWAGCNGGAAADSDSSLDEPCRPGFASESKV
Description: Agonist activity at human cloned beta-1 adrenergic receptor expressed in CHO cells assessed as cAMP accumulation

[8] = Cmax in dog at 0.2 mg/kg, po by cassette assay; type: ADME, organism-based, Canis lupus familiaris; set-up: dose 0.2 mg/kg, route oral; conditions: in vivo
[9] = AUC (0 to 24 hrs) in monkey at 0.32 mg/kg, po; type: ADME, organism-based, Macaca mulatta; set-up: time < 24 hr, dose 0.32 mg/kg, route oral; conditions: rhesus monkey, plasma
[10] = Selectivity for human beta3 adrenergic receptor over dog beta3 adrenergic receptor
[11] = Protein binding in Beagle dog serum at 32 ug/kg, iv; type: ADME, organism-based, Canis lupus familiaris; conditions: 0.032 mg/kg, read-out: PB (converted)
[12] = Cmax in rat at 0.5 mg/kg, po by cassette assay; type: ADME, organism-based; set-up: dose 0.5 mg/kg, route oral; conditions: in vivo
[13] = Total clearance in dog at 0.1 mg/kg, iv by cassette assay; type: ADME, organism-based, Canis lupus familiaris; set-up: dose 0.1 mg/kg, route intravenous; conditions: in vivo
[14] = Oral bioavailability in rat at 0.50 mg/kg by cassette assay; type: ADME, organism-based; conditions: in vivo, 0.5 mg/kg
[15] = Total clearance in rat at 0.50 mg/kg, iv by cassette assay; type: ADME, organism-based; set-up: dose 0.5 mg/kg, route intravenous; conditions: in vivo, 0.5 mg/kg
[16] = Cmax in monkey at 0.32 mg/kg, po; type: ADME, organism-based, Macaca mulatta; set-up: dose 0.32 mg/kg, route oral; conditions: rhesus monkey, in vivo
[17] = target: Beta-3 adrenergic receptor (Canis lupus familiaris, UniProt O02662); assay: Agonist activity at dog beta3 adrenergic receptor expressed in CHO cells assessed as cAMP accumulation; type: functional, cell-based
Chain of Beta-3 adrenergic receptor (Canis lupus familiaris, UniProt O02662) (O02662 whole entry): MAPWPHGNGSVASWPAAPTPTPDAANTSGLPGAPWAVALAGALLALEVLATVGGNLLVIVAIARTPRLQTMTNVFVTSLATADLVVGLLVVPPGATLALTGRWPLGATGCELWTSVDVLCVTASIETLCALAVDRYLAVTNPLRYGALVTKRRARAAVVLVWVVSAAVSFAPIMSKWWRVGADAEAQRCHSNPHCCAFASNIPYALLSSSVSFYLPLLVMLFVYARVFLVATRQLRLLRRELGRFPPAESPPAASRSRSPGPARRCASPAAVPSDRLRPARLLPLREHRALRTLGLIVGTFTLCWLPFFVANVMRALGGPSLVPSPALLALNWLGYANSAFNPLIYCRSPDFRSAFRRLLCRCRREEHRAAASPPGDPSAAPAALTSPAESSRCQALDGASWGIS

[18] = Terminal half life in dog at 0.1 mg/kg, iv by cassette assay; type: ADME, organism-based, Canis lupus familiaris; set-up: dose 0.1 mg/kg, route intravenous; conditions: in vivo
Canis familiaris [19] = assay: Ratio of AUC for drug to AUC for 4-((7S)-7-{[(2R)-2-(3-Chlorophenyl)-2-hydroxyethyl]amino}-5,6,7,8-tetrahydro-2-naphthalenyl)benzoic acid hydrochloride in dog at 0.1 or 0.20 mg/kg, po by cassette dosing assay; type: ADME, organism-based, Canis lupus familiaris; set-up: dose 0.2 mg/kg, route oral; conditions: in vivo, 0.2 mg/kg
[20] = AUC (0 to 24 hrs) in rat at 0.5 mg/kg, po by cassette assay; type: ADME, organism-based; set-up: time < 24 hr, dose 0.5 mg/kg, route oral; conditions: plasma
[21] = Terminal half life in rat at 0.50 mg/kg, iv by cassette assay; type: ADME, organism-based; set-up: dose 0.5 mg/kg, route intravenous; conditions: in vivo, 0.5 mg/kg
[22] = Oral bioavailability in dog at 0.1 mg/kg by cassette assay; type: ADME, organism-based, Canis lupus familiaris; conditions: in vivo
Canis familiaris [23] = assay: Ratio of Cmax for drug to Cmax for 4-((7S)-7-{[(2R)-2-(3-Chlorophenyl)-2-hydroxyethyl]amino}-5,6,7,8-tetrahydro-2-naphthalenyl)benzoic acid hydrochloride in dog at 0.1 or 0.20 mg/kg, po by cassette dosing assay; type: ADME, organism-based, Canis lupus familiaris; set-up: dose 0.2 mg/kg, route oral; conditions: in vivo, 0.2 mg/kg
[24] = Terminal half life in monkey at 0.32 mg/kg, iv by cassette assay; type: ADME, organism-based, Macaca mulatta; set-up: dose 0.32 mg/kg, route intravenous; conditions: rhesus monkey, in vivo
[25] = Total clearance in monkey at 0.32 mg/kg, iv by cassette assay; type: ADME, organism-based, Macaca mulatta; set-up: dose 0.32 mg/kg, route intravenous; conditions: rhesus monkey, in vivo
Canis familiaris [26] = assay: Inhibition of carbachol-induced increase of intravesical pressure in Beagle dog OAB model at 32 ug/kg,; type: functional; conditions: Canis lupus familiaris
[27] = Oral bioavailability in monkey at 0.32 mg/kg by cassette assay; type: ADME, organism-based, Macaca mulatta; conditions: rhesus monkey, in vivo
[28] = Cmax in rat at 1.0 mg/kg, po; type: ADME, organism-based; set-up: dose 1 mg/kg, route oral; conditions: in vivo
[29] = Total clearance in dog at 0.12 mg/kg, iv by cassette assay; type: ADME, organism-based, Canis lupus familiaris; set-up: dose 0.12 mg/kg, route intravenous; conditions: in vivo
[30] = Oral bioavailability in rat at 0.32 mg/kg; type: ADME, organism-based; conditions: in vivo
[31] = Total clearance in rat at 0.32 mg/kg, iv; type: ADME, organism-based; set-up: dose 0.32 mg/kg, route intravenous; conditions: in vivo
[32] = Terminal half life in dog at 0.12 mg/kg, iv by cassette assay; type: ADME, organism-based, Canis lupus familiaris; set-up: dose 0.12 mg/kg, route intravenous; conditions: in vivo
[33] = Terminal half life in rat at 0.32 mg/kg, iv; type: ADME, organism-based; set-up: dose 0.32 mg/kg, route intravenous; conditions: in vivo
[34] = Oral bioavailability in dog at 0.12 mg/kg by cassette assay; type: ADME, organism-based, Canis lupus familiaris; conditions: in vivo
[35] = AUC (0 to 24 hrs) in rat at 1.0 mg/kg, po; type: ADME, organism-based; set-up: time < 24 hr, dose 1 mg/kg, route oral; conditions: plasma
[36] = AUC (0 to 24 hrs) in dog at 0.32 mg/kg, po by cassette assay; type: ADME, organism-based, Canis lupus familiaris; set-up: time < 24 hr, dose 0.32 mg/kg, route oral; conditions: plasma
[37] = Cmax in dog at 0.32 mg/kg, po by cassette assay; type: ADME, organism-based, Canis lupus familiaris; set-up: dose 0.32 mg/kg, route oral; conditions: in vivo
[38] = Cmax in monkey at 1.0 mg/kg, po by cassette assay; type: ADME, organism-based, Macaca mulatta; set-up: dose 1 mg/kg, route oral; conditions: rhesus monkey, in vivo
Canis familiaris [39] = assay: Ratio of AUC for drug to AUC for 3-[((7S)-7-{[(2R)-2-(3-Chlorophenyl)-2-hydroxyethyl]amino}-5,6,7,8-tetrahydro-2-naphthalenyl)oxy]benzoic acid hydrochloride in dog at 0.1 or 0.20 mg/kg, po by cassette dosing assay; type: ADME, organism-based, Canis lupus familiaris; set-up: dose 0.2 mg/kg, route oral; conditions: in vivo, 0.2 mg/kg
[40] = Cmax in dog at 0.21 mg/kg, po by cassette assay; type: ADME, organism-based, Canis lupus familiaris; set-up: dose 0.21 mg/kg, route oral; conditions: in vivo
[41] = AUC (0 to 24 hrs) in monkey at 1.0 mg/kg, po by cassette assay; type: ADME, organism-based, Macaca mulatta; set-up: time < 24 hr, dose 1 mg/kg, route oral; conditions: rhesus monkey, plasma
Canis familiaris [42] = assay: Ratio of Cmax for drug to Cmax for 3-[((7S)-7-{[(2R)-2-(3-Chlorophenyl)-2-hydroxyethyl]amino}-5,6,7,8-tetrahydro-2-naphthalenyl)oxy]benzoic acid hydrochloride in dog at 0.1 or 0.20 mg/kg, po by cassette dosing assay; type: ADME, organism-based, Canis lupus familiaris; set-up: dose 0.2 mg/kg, route oral; conditions: in vivo, 0.2 mg/kg
[43] = AUC (0 to 24 hrs) in dog at 0.21 mg/kg, po by cassette assay; type: ADME, organism-based, Canis lupus familiaris; set-up: time < 24 hr, dose 0.21 mg/kg, route oral; conditions: plasma
[44] = Cmax in rat at 0.52 mg/kg, po by cassette assay; type: ADME, organism-based; set-up: dose 0.52 mg/kg, route oral; conditions: in vivo
[45] = AUC (0 to 24 hrs) in rat at 0.52 mg/kg, po by cassette assay; type: ADME, organism-based; set-up: time < 24 hr, dose 0.52 mg/kg, route oral; conditions: plasma

Compound | bioavailability [1] | EC50 [2] | half-life [3] | EC50 [4] | Ratio EC50 (Homo sapiens) | AUC(0-t) at 24 h [5] | clearance [6] | EC50 [7] | Cmax [8] | clearance [13] | bioavailability [14] | clearance [15] | half-life [18] | half-life [21] | bioavailability [22] | half-life [24] | clearance [25] | bioavailability [27] | further results
O=C(O)COc1ccc(-c2ccc3c(c2)C[C@@H](NC[C@H](O)c2cccc(Cl)c2)CC3)cc1 | 48% | > 1000 nM | 1.9 h | 5.8 nM | > 170 | 197 ng·h/mL | 8.3 mL/min/kg | > 1000 nM | 21.8 ng/mL | – | – | – | – | – | – | – | – | – | –
O=C(O)c1ccc(-c2ccc3c(c2)C[C@@H](NC[C@H](O)c2ccc(Cl)cc2)CC3)cc1 | – | > 1000 nM | – | 0.38 nM | 2410 | 1980 ng·h/mL | – | 917 nM | 113 ng/mL | 1.7 mL/min/kg | 63.4% | 11.4 mL/min/kg | 14.3 h | 13.6 h | > 95% | 7.7 h | 6.7 mL/min/kg | 81.7% | AUC(0-t) at 24 h [9]: 722 ng·h/mL; Selectivity ratio [10]: 65.8; fraction unbound [11]: 0.03; Cmax [12]: 65 ng/mL; Cmax [16]: 91.2 ng/mL; EC50 [17]: 25 nM; Ratio AUC (Canis familiaris [19]): 1.25; AUC(0-t) at 24 h [20]: 470 ng·h/mL; Ratio (Canis familiaris [23]): 0.71; inhibition in vivo at 0.032 mg/kg (Canis familiaris [26]): 33%
O=C(O)COc1ccc2c(c1)C[C@@H](NC[C@H](O)c1cccc(Cl)c1)CC2 | – | > 10000 nM | – | 39 nM | 38 | 902 ng·h/mL | – | 1500 nM | 92.5 ng/mL | – | – | – | – | – | – | – | – | – | Cmax [28]: 28.1 ng/mL; clearance [29]: 3 mL/min/kg; bioavailability [30]: 60%; clearance [31]: 52.6 mL/min/kg; half-life [32]: 3.8 h; half-life [33]: 1.18 h; bioavailability [34]: 83.2%; AUC(0-t) at 24 h [35]: 177 ng·h/mL
O=C(O)c1ccc(Oc2ccc3c(c2)C[C@@H](NC[C@H](O)c2cccc(Cl)c2)CC3)nc1 | 61% | > 1000 nM | 2.8 h | 1.47 nM | 50 | – | 10.8 mL/min/kg | 70 nM | – | – | – | – | – | – | – | – | – | – | AUC(0-t) at 24 h [36]: 320 ng·h/mL; Cmax [37]: 49 ng/mL
COc1ccc(Oc2ccc3c(c2)C[C@@H](NC[C@H](O)c2ccc(Cl)cc2)CC3)cc1C(=O)O | – | > 1000 nM | – | 4.7 nM | > 217 | – | – | > 1000 nM | – | 1.4 mL/min/kg | > 95% | 2 mL/min/kg | 8.3 h | 11.9 h | 64.2% | 6.7 h | 5.3 mL/min/kg | 48% | Cmax [38]: 319 ng/mL; Ratio AUC (Canis familiaris [39]): 0.76; Cmax [40]: 103 ng/mL; AUC(0-t) at 24 h [41]: 1560 ng·h/mL; Ratio (Canis familiaris [42]): 0.64; AUC(0-t) at 24 h [43]: 1530 ng·h/mL; Cmax [44]: 367 ng/mL; AUC(0-t) at 24 h [45]: 4580 ng·h/mL
